Measured values taken from PubChem BioAssay (NCI).
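How tested: cells in 96-well plates exposed to compound for 48 hours at five concentrations. The concentration for 50% growth inhibition is given as GI50. TGI denotes the concentration required for complete inhibition of growth.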

What was measured:
Test in all cases: NCI tumour cell line growth inhibition, 48 h
[1] = system: SF-539 CNS
[2] = system: BT-549 breast
[3] = system: HCT-15 colon
[4] = system: HS 578T breast
[5] = system: MALME-3M melanoma
[6] = system: UACC-257 melanoma

| SMILES | TGI [1] [µM] | TGI [2] [µM] | TGI [3] [µM] | TGI [4] [µM] | TGI [5] [µM] | TGI [6] [µM] | GI50 [1] [µM] | GI50 [2] [µM] | GI50 [3] [µM] | GI50 [4] [µM] | GI50 [5] [µM] | GI50 [6] [µM] |
| --- | --- | --- | --- | --- | --- | --- | --- | --- | --- | --- | --- | --- |
| COc1cc2c(cc1OC)[C@H](C)N1CCc3cc(OC)c(OC)cc3[C@@H]1C2 | > 100 | > 100 | > 100 | > 100 | > 100 | > 100 |  |  |  |  |  |  |
| Cc1c(Cl)cccc1C(=O)Nc1nc2c(s1)CN(C(=O)c1ccc(C(F)(F)F)cc1)CC2 | 0.387 | 22.9 | 21.2 | > 50 | 17.8 | 23.9 | 0.0923 | 0.331 | 0.0295 | 0.0699 | 0.515 | 2.36 |
| COc1ccc2c(c1)c(CC(=O)[Se]C)c(C)n2C(=O)c1ccc(Cl)cc1 | > 0.526 |  | > 1 | > 0.942 | > 0.582 | > 0.689 | > 0.238 |  | > 0.506 | > 0.297 | > 0.346 | > 0.352 |
| Cc1cc2c(C(C)C)c(O)c(O)cc2c(O)c1-c1c(C)cc2c(C(C)C)c(O)c(O)cc2c1O | 43.5 | 41.2 | 20.9 | 47.6 | 24.6 | 65 | 19.9 | 14.4 | 5.31 | 19.3 | 10.9 | 26.6 |
| CC1=C(C(=O)Nc2ccc3n[nH]c(C)c3c2)C(c2ccc(C(F)(F)F)cc2)CC(=O)N1 (stereo unspecified) | > 25 | > 25 | > 25 | 19.5 | > 25 | > 25 | 7.12 | 6.96 | > 25 | 0.305 | 13.6 | > 25 |
| CC1=C(c2cccc(O)c2)[C@H](c2ccc(OCCN3CC(CF)C3)cc2)Oc2ccc(O)cc21 | 18.3 | 23.2 | 19.6 | 26.4 | 13.3 | 18.2 | 5.78 | 10.5 | 6.09 | 5.12 | 3.23 | 4.98 |
| COC1CC(O[C@H]2CC[C@@]3(C)[C@H](CC[C@@H]4[C@@H]3CC[C@]3(C)[C@@H](C5=CC(=O)OC5)[C@@H](OC(C)=O)C[C@]43O)C2)OC(C)C1O (stereo partly specified) | < 0.01 | < 0.01 | < 0.01 | < 0.0145 | < 0.01 | < 0.01 | < 0.01 | < 0.01 | < 0.01 | < 0.01 | < 0.01 | < 0.01 |
| Cc1cc([N+](=O)[O-])c(NS(=O)(=O)c2cccc(C(=O)O)c2)cc1-c1cccnc1 | > 100 | > 100 | > 100 |  | > 100 | > 100 | > 100 | > 100 | > 100 |  | > 100 | > 100 |
| COc1cc2nc(N3CCCC3)nc(NCc3ccccc3)c2cc1OC | 3.12 | 13.4 | 4.22 | 4.5 | 3.34 | 4.04 | 1.71 | 3.52 | 1.79 | 1.99 | 1.84 | 1.96 |
| CCCCOC(=O)N1CCN(/[N+]([O-])=N/Oc2ccc([N+](=O)[O-])cc2[N+](=O)[O-])CC1 | 6.11 | 17.7 | 21.4 | > 100 |  | 29 | 2.56 | 4.87 | 3.99 | 20.9 |  | 13.4 |
| CC(C)CCCC(C)[C@H]1CCC2[C@@H]3CCC4Cc5nc6c(nc5C[C@]4(C)C3CC[C@@]21C)CC1CC[C@@H]2C(CC[C@@]3(C)C2CC[C@@H]3C(C)CCCC(C)C)[C@@]1(C)C6 (stereo partly specified) | > 100 | > 100 | > 100 | > 100 | > 100 | > 100 |  |  |  |  |  |  |
| N#C/C(=C\c1ccsc1)c1nc2ccccc2o1 | > 100 | > 100 | > 100 | 92.9 | > 100 | > 100 | 38.7 | 48.4 | > 100 | 26 | 45.2 | > 100 |
| Cn1ncnc1[C@H]1c2n[nH]c(=O)c3cc(F)cc(c23)N[C@@H]1c1ccc(F)cc1 | > 100 | > 100 | > 100 | > 100 | > 100 | > 100 |  | > 87.1 | > 100 | > 100 | > 100 | > 100 |
| O=C1C(Nc2ccc(Cl)cc2)=C(I)C(=O)c2ncccc21 | 3 | 4.72 | 1.82 | 6.44 | 2.14 | 2.6 | 1.63 | 2 | 0.373 | 2.13 | 0.875 | 1.29 |
| O=C1NNC2(C(=O)N1)c1ccccc1-c1ccccc12 | > 10 | > 10 | > 10 | > 10 | > 10 | > 10 |  |  |  |  |  |  |
| O=C(Nc1cccc(-n2cc(-c3ccncc3)c(-c3ccc(Cl)c(O)c3)n2)c1)Nc1cc(C(F)(F)F)cc(C(F)(F)F)c1 | 1.53 | 2.05 | 3.01 | 4.01 | 2.24 | 2.24 | 0.777 | 1.05 | 0.591 | 1.2 | 0.831 | 0.89 |
| O=C1c2cc3c(cc2[C@@H]2[C@H]1c1ccc([N+](=O)[O-])cc1C(=O)N2CCCBr)OCO3 | < 0.01 | 0.411 | 0.656 | 11.5 | 0.168 | > 100 | < 0.01 | < 0.01 | < 0.0226 | 0.381 | < 0.0189 | < 0.01 |
| Cc1ccccc1OCC(O)CN1CCN(c2ccc(Cl)cc2)CC1 (stereo unspecified) | 36.5 | 33.3 | 40.2 | 68.7 | 31.2 | 37.9 | 19.5 | 18.3 | 19.2 | 21.4 | 15.2 | 20.6 |
| O=C1Nc2ccc(Br)cc2C1=Nc1cccnc1 | 30 | 33.2 | 59.6 | 60.5 | 46.8 | 55.9 |  |  |  |  |  |  |
| CC1(C)C2CCC13C(=O)C1OC3(C2)C2C(=O)c3ccccc3C(=O)C12 (stereo unspecified) | > 100 |  | > 100 | > 100 | > 100 | > 100 | > 100 |  | 79.4 | > 100 | 39.7 | > 100 |
| CSC1=C(N)C(=O)c2[nH]cc(CO)c2C1=N | 0.309 | 0.313 | 0.382 | 0.796 | 0.192 | 0.267 | 0.171 | 0.171 | 0.163 | 0.282 | 0.0714 | 0.134 |
| CC1CCC/C1=C(/I)C(=O)c1ccccc1 (stereo unspecified) | > 100 |  | > 100 | > 100 | > 100 | > 100 |  |  |  |  |  |  |
| Nc1ncnc2c1N=C(c1ccc3c(c1)OCO3)CC(c1ccc([N+](=O)[O-])cc1)N2 (stereo unspecified) | > 100 | 53.1 | > 100 | > 100 | > 100 | > 100 | > 100 | 1.68 | 9.55 | 9.18 | 61.1 | > 100 |
| COc1cc(C(=O)c2c(-c3ccccc3)oc3c(OC)cccc23)cc(OC)c1OC | 0.173 | 1.5 | > 100 | > 24.1 | > 100 | > 100 | 0.0293 | 0.154 | 0.0444 | 0.0984 | 1.32 | 28.3 |
| Cc1c(C(=O)Nc2ccccc2)sc2ncn(Cc3cccc(Cl)c3)c(=O)c12 | > 100 | 27.6 | > 100 | > 100 |  | > 100 | 22.4 | 11.3 | 13.2 | 42.6 |  | 34.4 |
| CN(C)CCN1C(=O)c2c(c3c4ccccc4n4c3c3c2c2ccccc2n3C2CC(O)C(O)C4(C)O2)C1=O (stereo unspecified) |  | 13 | 8.72 | 12 | 9.3 | 9.79 |  | 5.32 | 1.59 | 2.34 | 2.14 | 3.32 |
| COc1ccc2c(CN3CCCC[C@H]3C(=O)O)cc3cc4c(cc3c2c1)OCO4 | 16.2 | 6.6 | 12.7 | 4.4 |  |  | 4.54 | 2.6 | 1.4 | 1.53 |  |  |
| COc1ccc(C/C(C)=C(/c2ccc(OCCN3CCCCC3)cc2)c2ccc(OC(=O)NCc3ccccc3)cc2)cc1 | 0.766 | 0.763 | 0.706 |  | 0.776 | 0.917 | 0.401 | 0.379 | 0.339 |  | 0.395 | 0.472 |
| C[C@@H]1[C@H](C)N1CC(O)Cn1ccnc1[N+](=O)[O-] (stereo partly specified) | > 100 |  | > 100 | > 100 | > 100 | > 100 |  |  |  |  |  |  |
| COc1ccc(CCN2CC=Cn3c2nc2ccccc2c3=O)cc1 | 0.0627 | 15.5 | > 45.7 | 77.4 |  | > 100 | 0.0209 | 0.0611 | 0.0185 | 0.0329 |  | 20.5 |
